Results reported in ChEMBL document CHEMBL1201862, “PubChem BioAssay data set” (2004).
Calls of active or inactive are those of the source.

Columns and labels:
[1] = Shn3 3'UTR reporter inhibitors, dose response, cell-based, Clone20 osteoblasts, firefly luciferase, cherry-picked (AID 624132); type: functional;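 also: firefly luciferase luminescence from reporter carrying the Shn3 3'UTR in osteoblasts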
[2] = biological target: Melanocortin receptor 4 (Homo sapiens, UniProt P32245); type: functional, cell-based;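 also: Cell-based assay with luminescence read-out, confirmatory dose-response testing for agonist activity of biased ligands at MC4R; human U2OS cells with tagged receptor and beta-arrestin; potency of agonists that increase receptor coupling to beta-arrestin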
[3] = HepG2 cell cytotoxicity, dose response, cytotoxicity control for Shn3 inhibitor project, CellTiter-Glo, cherry-picked (AID 624134); type: functional, cell-based
[4] = control 3'UTR Renilla luciferase suppression, dose response, counter-screen for Shn3 inhibitor project, cell-based, Clone20-Shn3RL, cherry-picked (AID 624133); type: functional
[5] = biological target: Paired box protein Pax-8 (Homo sapiens, UniProt Q06710); assay: inhibitors of PAX8-driven TPO luciferase reporter, dose response, RMG-I cells, cherry-pick (AID 687027); type: functional, cell-based;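 also: luciferase reporter driven by Pax8 target thyroperoxidase promoter measured by SteadyGlo luminescence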
[6] = inhibitors of PGC1a acetylation in cells, dose response, cell-based, cherry-picked samples (AID 720514); type: functional;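 also: potency may reflect raised or lowered acetylation signal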
[7] = non-specific cell cytotoxicity, dose response, cytotoxicity control for PAX8 inhibitor project, plate reader, dry powder samples (AID 743021); type: functional, cell-based
[8] = biological target: Adenosylmethionine-8-amino-7-oxononanoate aminotransferase (Mycobacterium tuberculosis, UniProt P9WQ81); assay: Mycobacterium tuberculosis BioA enzyme inhibitor Measured in Biochemical System Using Plate Reader - 2163-02_Inhibitor_Dose_CherryPick_Activity.; type: functional, Mycobacterium tuberculosis UT205
[9] = biological target: Fructose-bisphosphate aldolase (Mycobacterium tuberculosis, UniProt P9WQA3); assay: Fluorescence-based biochemical high throughput dose response assay for inhibitors of the fructose-bisphosphate aldolase (FBA) of M. tuberculosis.; type: functional
[10] = HepG2 cell cytotoxicity, dose response, cytotoxicity control, cherry-picks, set 5 (AID 1053118); type: functional, cell-based
[11] = HEK293 cell cytotoxicity, dose response, cytotoxicity control, cherry-picks, set 5 (AID 1053117); type: functional, cell-based
[12] = A549 cell cytotoxicity, dose response, cytotoxicity control, cherry-picks, 26 µM top dose (AID 1053119); type: functional, cell-based
[13] = biological target: Aryl hydrocarbon receptor (Homo sapiens, UniProt P35869); conditions: Potency;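 also: confirmatory quantitative high-throughput screen measuring activation of the AhR signaling pathway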
Aryl hydrocarbon receptor, sequence (P35869 whole entry): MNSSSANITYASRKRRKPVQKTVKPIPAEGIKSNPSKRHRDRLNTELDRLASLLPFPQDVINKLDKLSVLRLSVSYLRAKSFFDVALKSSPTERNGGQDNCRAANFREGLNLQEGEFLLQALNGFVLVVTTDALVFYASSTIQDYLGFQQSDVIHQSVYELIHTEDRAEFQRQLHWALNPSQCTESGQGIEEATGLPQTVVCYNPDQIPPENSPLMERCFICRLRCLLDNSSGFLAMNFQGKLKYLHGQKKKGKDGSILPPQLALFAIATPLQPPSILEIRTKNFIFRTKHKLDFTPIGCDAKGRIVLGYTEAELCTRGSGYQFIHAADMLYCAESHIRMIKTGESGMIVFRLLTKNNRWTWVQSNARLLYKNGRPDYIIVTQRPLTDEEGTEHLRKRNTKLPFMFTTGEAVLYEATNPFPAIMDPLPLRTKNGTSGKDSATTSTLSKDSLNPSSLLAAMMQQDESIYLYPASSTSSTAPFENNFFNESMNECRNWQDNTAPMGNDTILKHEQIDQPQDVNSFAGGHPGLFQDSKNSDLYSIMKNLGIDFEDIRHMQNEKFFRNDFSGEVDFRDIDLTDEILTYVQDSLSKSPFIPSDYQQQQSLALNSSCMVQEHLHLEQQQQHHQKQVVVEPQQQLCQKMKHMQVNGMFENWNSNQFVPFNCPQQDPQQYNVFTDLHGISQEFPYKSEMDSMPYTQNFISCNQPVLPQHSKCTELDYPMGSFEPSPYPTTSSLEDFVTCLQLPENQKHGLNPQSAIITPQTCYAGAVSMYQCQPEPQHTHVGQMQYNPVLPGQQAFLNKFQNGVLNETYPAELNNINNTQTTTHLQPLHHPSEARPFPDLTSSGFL

Adenosylmethionine-8-amino-7-oxononanoate aminotransferase, sequence (P9WQ81 whole entry): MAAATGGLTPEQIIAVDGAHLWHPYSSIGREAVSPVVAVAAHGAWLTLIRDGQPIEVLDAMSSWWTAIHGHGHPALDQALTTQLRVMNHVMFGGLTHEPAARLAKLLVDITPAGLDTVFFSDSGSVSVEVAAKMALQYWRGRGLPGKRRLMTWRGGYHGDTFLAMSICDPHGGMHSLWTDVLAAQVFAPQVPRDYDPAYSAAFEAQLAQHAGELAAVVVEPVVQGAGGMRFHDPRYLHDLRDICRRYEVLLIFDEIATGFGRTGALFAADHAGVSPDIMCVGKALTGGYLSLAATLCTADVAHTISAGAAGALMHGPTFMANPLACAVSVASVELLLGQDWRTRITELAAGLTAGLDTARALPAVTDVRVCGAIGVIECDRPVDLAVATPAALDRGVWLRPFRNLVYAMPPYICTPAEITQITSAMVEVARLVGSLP
Melanocortin receptor 4, sequence (P32245 whole entry): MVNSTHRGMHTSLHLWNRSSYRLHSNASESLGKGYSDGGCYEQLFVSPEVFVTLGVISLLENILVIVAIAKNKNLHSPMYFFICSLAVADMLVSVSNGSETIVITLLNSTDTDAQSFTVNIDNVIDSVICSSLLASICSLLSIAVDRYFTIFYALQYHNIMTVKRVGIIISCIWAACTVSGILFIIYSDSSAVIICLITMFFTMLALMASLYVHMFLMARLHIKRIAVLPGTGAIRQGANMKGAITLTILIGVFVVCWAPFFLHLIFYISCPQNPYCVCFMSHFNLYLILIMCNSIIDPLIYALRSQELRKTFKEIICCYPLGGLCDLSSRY
Paired box protein Pax-8, sequence (Q06710 whole entry): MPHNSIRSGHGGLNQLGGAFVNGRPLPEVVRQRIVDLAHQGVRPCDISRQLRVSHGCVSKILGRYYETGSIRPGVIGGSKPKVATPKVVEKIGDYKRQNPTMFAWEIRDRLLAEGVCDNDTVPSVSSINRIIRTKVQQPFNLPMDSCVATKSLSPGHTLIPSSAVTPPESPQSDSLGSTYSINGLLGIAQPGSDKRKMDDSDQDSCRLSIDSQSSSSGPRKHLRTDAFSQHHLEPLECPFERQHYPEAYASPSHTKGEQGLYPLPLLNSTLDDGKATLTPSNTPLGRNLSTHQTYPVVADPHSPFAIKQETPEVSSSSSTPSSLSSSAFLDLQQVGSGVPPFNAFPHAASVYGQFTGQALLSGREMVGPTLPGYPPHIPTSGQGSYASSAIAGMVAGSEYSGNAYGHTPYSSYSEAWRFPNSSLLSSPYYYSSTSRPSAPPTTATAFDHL
Fructose-bisphosphate aldolase, sequence (P9WQA3 whole entry): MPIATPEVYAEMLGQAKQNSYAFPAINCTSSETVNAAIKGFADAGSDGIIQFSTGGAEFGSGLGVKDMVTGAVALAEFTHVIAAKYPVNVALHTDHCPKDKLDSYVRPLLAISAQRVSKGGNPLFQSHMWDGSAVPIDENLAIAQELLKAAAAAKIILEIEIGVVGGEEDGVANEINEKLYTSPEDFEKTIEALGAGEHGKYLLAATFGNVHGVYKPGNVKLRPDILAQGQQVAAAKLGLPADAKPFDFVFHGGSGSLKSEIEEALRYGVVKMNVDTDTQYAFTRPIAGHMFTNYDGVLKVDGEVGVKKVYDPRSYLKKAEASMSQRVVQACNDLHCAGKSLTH

## CCN1CCN(Cc2ccc(NC(=O)c3cc(NC(=O)c4cncc(-c5ccc(C#N)cc5)c4)cc(OC)c3)cc2C(F)(F)F)CC1
[1]
  AC50: 3.36 µM (active)
[2]
  EC50: > 89.2 µM (inactive)
[3]
  AC50: 8.15 µM (active)
[4]
  AC50: 7.18 µM (active)
[5]
  AC50: 7.76 µM (active)
[6]
  AC50: 6.66 µM (active)
[7]
  AC50: 48.2 µM (active)

## O=C(Cc1ccccc1)N1CC[C@@H]2[C@H]1c1cc(Br)ccc1N[C@@H]2CO
[8]
  AC50: 2.74 µM (active)

## COc1ccc(OC)c2c1C(=O)CC2C (centres undefined)
[9]
  IC50: 2.23 µM (active)

## CCNC(=O)[C@H]1[C@H](CO)[C@H]2Cn3c(ccc(-c4cccc(F)c4)c3=O)[C@H]2N1C(=O)Cc1cccnc1
[8]
  AC50: 17 µM (active)

## CO[C@H]1CN(C)C(=O)c2ccc(NC(=O)c3ccc(-c4ccccc4)cc3)cc2OC[C@H](C)NC[C@@H]1C
[6]
  AC50: 31.9 µM (active)
[10]
  AC50: > 52 µM (inactive)
[11]
  AC50: > 52 µM (inactive)
[12]
  AC50: > 52 µM (inactive)

## CO[C@H]1CN(C)C(=O)c2cc(NC(=O)Nc3cc(Cl)cc(Cl)c3)ccc2OC[C@H](C)NC[C@H]1C
[10]
  AC50: 16.6 µM (active)
[11]
  AC50: 34.3 µM (active)
[12]
  AC50: > 52 µM (inactive)

## O=C(Nc1ccccc1)Nc1cnns1 [THIDIAZURON]
[13]
  AC50: 50.1 µM (inconclusive)

## O=P(OCC(Br)CBr)(OCC(Br)CBr)OCC(Br)CBr (centres undefined) [TRIS(2,3-DIBROMOPROPYL)PHOSPHATE]
[13]
  AC50: 56.2 µM (inconclusive)
